The subject of one data set is pyrophosphatases. Particulars: cited from earlier work.
A further data set relates to bone. Kind of data set: Bone scintigraphy, pyrophosphate compared to polyphosphate. The data set is classed as in vivo. To be noted: as compared to polyphosphates, in words. As for the experimental part: The animal was anesthetized with ethylcarbamate after injection and immediately before scintigraphy was carried out. Scintigraphy was carried out after 5 minutes, 1 hour, 2 hours and 4 hours following injection. Two recording methods were applied:
a. conventional scanning,
b. scanning, followed by information treatment for calculating surface activities.

In the case of `O=P(O)(O)OP(=O)(O)O` [pyrophosphate], the hydrolysis by pyrophosphatases entry in the data set on pyrophosphatases is “rapid hydrolysis”. Also, the “time-period before bone scintigraphy (required by elimination from organs)” value with bone was “shorter than in the case of polyphosphates”.

The values are drawn from patent US3931396A, “Method of preparation of a composition having a base of 99^m technetium for diagnosis by scintigraphy” (priority 1974, dated 1976).
